Experiments:
HeLa-MaTu-ADR = test: Proliferation assay HeLa-MaTu-ADR; format: cell-based, human; conditions: cervix carcinoma, 4 days, crystal violet
Method in brief: (§1)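 IC50 values come from a 4-parameter fit of crystal violet proliferation data, with the zero-point plate set as 100% inhibition. Compound exposure lasted 4 days at up to 30 μM in 10% FCS medium.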

Caco-2 = test: Proliferation assay Caco-2; format: cell-based, human; conditions: Caco-2, colon/rectum carcinoma, 4 days, crystal violet
Method in brief: as §1

DU145 = test: Proliferation assay DU145; format: cell-based, human; conditions: DU145, prostate carcinoma, 4 days, crystal violet
Method in brief: as §1

MIA PaCa-2 = test: Proliferation assay MIA PaCa-2; format: cell-based; conditions: Homo sapiens, 96 h; MIA PaCa-2, pancreas carcinoma; 4 days, crystal violet
Description: (§2) Cultivated human tumor cells (originally obtained from ATCC, HeLa-MaTu and HeLa-MaTu-ADR, originally obtained from Epo GmbH, Berlin, Germany) were plated at a density of 1000 to 5000 cells/measuring point, depending on the growth rate of the cell line, in a 96-well multititer plate in 200 μl of growth medium (DMEM/HAMS F12, 2 mM L-glutamine, 10% fetal calf serum). After 24 hours the cells of one plate (zero-point plate) were stained with crystal violet (see below), whereas the medium of the other plates was replaced with fresh culture medium (200 μl), to which the test substances had been added at various concentrations (0 μM, and in the range 0.01-30 μM; the final concentration of the solvent dimethyl sulfoxide was 0.5%). The cells were incubated for 4 days in the presence of the test substances. Cellular proliferation was determined by staining the cells with crystal violet: the cells were fixed by adding 20 μl/measuring point of an 11% glutaraldehyde solution for 15 min at room temperature. After washing the fixed cells with water three times, the plates were dried at room temperature. The cells were stained by adding 100 μl/measuring point of a 0.1% crystal violet solution (pH adjusted to pH3 by adding acetic acid). After washing the stained cells with water three times, the plates were dried at room temperature. The dye was dissolved by adding 100 μl/measuring point of a 10% acetic acid solution. The extinction was determined photometrically at a wavelength of 595 nm. The percentage change in cell growth was calculated by standardization of the measured values to the extinction values of the zero-point plate (=0%) and the extinction of the untreated (0 μM) cells (=100%). The measured data were standardized to 0% inhibition (cell proliferation without inhibitor) and 100% inhibition (zero-point plate). The IC50 values were determined by means of a 4-parameter fit using the company's own software.
(§3) The substances were examined in the following cell lines which, in an exemplary manner, represent the stated indications: […]

PC3 = test: Proliferation assay PC3; format: cell-based; conditions: Homo sapiens, PC-3, 96 h; PC3, prostate carcinoma; 4 days, crystal violet
Description: as §2, §3

786-O = test: Proliferation assay 786-O; format: cell-based; conditions: Homo sapiens, 786-0, 96 h, kidney carcinoma, 4 days, crystal violet
Description: as §2, §3

MDA-MB 453 = test: Proliferation assay MDA-MB 453; format: cell-based; conditions: Homo sapiens, 96 h; MDA-MB 453, estrogen receptor-negative mamma carcinoma; 4 days, crystal violet
Description: as §2, §3

HCT116 = test: Proliferation assay HCT116; format: cell-based; conditions: Homo sapiens, HCT-116, 96 h; HCT116, colon/rectum carcinoma; 4 days, crystal violet
Description: as §2, §3

H1975 = test: Proliferation assay H1975; format: cell-based; conditions: Homo sapiens, NCI-H1975, 96 h; H1975, non-small-cell bronchial carcinoma; 4 days, crystal violet
Description: as §2, §3

SW480 = test: Proliferation assay SW480; format: cell-based; conditions: Homo sapiens, 96 h; SW480, colon/rectum carcinoma; 4 days, crystal violet
Description: as §2, §3

SK-BR-3 = test: Proliferation assay SK-BR-3; format: cell-based; conditions: Homo sapiens, 96 h; SK-BR-3, estrogen receptor-negative mamma carcinoma; 4 days, crystal violet
Description: as §2, §3

NCI-ADR-Res = test: Proliferation assay NCI-ADR-Res; format: cell-based; conditions: Homo sapiens, 96 h, ovarial carcinoma, 4 days, crystal violet
Description: as §2, §3

Caki2 = test: Proliferation assay Caki2; format: cell-based; conditions: Homo sapiens, CAKI-2, 96 h; Caki2, kidney carcinoma; 4 days, crystal violet
Description: as §2, §3

HT29 = test: Proliferation assay HT29; format: cell-based; conditions: Homo sapiens, HT-29, 96 h; HT29, colon/rectum carcinoma; 4 days, crystal violet
Description: as §2, §3

A431 = test: Proliferation assay A431; format: cell-based; conditions: Homo sapiens, A-431, 96 h; A431, skin: epidermis; 4 days, crystal violet
Description: as §2, §3

HeLa = test: Proliferation assay HeLa; format: cell-based; conditions: Homo sapiens, 96 h, cervix carcinoma, 4 days, crystal violet
Description: as §2, §3

CDK1/CycB = target: T1, CDK1/CycB (Homo sapiens, UniProt P06493); test: CDK1/CycB kinase assay (Assay 1); format: biochemical; conditions: 0.5 μM ATP, histon IIIS, 10 min 22° C.; read-out: CDK1/CycB (Assay 1) Concentration for half-maximal inhibition of the enzyme activity, IC50
T1 construct: purchased ProQinase GmbH, Freiburg, Germany; host or cells: baculovirus-infected insect cells (Sf9)
Description: Recombinant CDK1 and CycB-GST fusion proteins, purified from baculovirus-infected insect cells (Sf9), were purchased from ProQinase GmbH, Freiburg, Germany. The histon HIS used as kinase substrate is commercially available from Sigma.
CDK1/CycB (200 ng/measuring point) was incubated for 10 min at 22° C. in the presence of various concentrations of test substances (0 μM, and within the range 0.01-100 μM) in assay buffer [50 mM Tris/HCl pH8.0, 10 mM MgCl2, 0.1 mM Na ortho-vanadate, 1.0 mM dithiothreitol, 0.5 μM adenosine triphosphate (ATP), 10 μg/measuring point histon IIIS, 0.2 μCi/measuring point ^33P-gamma ATP, 0.05% NP40, 1.25% dimethyl sulfoxide]. The reaction was stopped by adding EDTA solution (250 mM, pH 8.0, 15 μl/measuring point).
From each reaction mixture, 15 μl were applied to P30 filter strips (from Wallac), and unincorporated ^33P-ATP was removed by washing the filter strips three times, for 10 min each time, in 0.5% phosphoric acid. After drying the filter strips for 1 hour at 70° C., the filter strips were covered with scintillator strips (MeltiLex™ A, from Wallac) and stoved for 1 hour at 90° C. The amount of incorporated ^33P (substrate phosphorylation) was determined by scintillation measurement in a gamma-radiation measuring instrument (Wallac). The measured data were standardized to 0% inhibition (enzyme reaction without inhibitor) and 100% inhibition (all assay components except enzyme). The IC50 values were determined by means of a 4-parameter fit using the company's own software.

T1 sequence (P06493 whole entry): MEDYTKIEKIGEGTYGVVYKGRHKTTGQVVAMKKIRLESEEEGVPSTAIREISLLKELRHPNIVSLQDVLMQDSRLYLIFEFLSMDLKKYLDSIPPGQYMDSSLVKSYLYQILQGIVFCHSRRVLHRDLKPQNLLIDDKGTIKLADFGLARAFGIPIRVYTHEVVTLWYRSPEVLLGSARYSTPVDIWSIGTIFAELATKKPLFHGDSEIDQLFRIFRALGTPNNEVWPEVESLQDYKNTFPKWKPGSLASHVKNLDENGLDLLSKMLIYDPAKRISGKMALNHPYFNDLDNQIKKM
T1 sequence (P14635 whole entry partner): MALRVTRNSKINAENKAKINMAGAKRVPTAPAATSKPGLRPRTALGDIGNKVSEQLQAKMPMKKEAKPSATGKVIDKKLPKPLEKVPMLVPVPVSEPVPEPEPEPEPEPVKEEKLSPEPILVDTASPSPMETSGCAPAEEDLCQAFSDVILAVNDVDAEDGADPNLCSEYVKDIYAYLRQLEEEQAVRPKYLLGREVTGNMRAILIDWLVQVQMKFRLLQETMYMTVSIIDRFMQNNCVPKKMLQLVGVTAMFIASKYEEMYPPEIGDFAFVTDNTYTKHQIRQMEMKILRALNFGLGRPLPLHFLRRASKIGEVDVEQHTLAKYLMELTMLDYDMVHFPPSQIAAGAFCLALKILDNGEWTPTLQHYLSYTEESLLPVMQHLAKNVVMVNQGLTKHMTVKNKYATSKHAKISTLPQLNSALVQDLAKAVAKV

| IC50 (HeLa-MaTu-ADR) [nM] | IC50 (Caco-2) [nM] | IC50 (DU145) [nM] | IC50 (MIA PaCa-2) [nM] | IC50 (PC3) [nM] | IC50 (786-O) [nM] | IC50 (MDA-MB 453) [nM] | IC50 (HCT116) [nM] | IC50 (H1975) [nM] | IC50 (SW480) [nM] | IC50 (SK-BR-3) [nM] | IC50 (HT29) [nM] | IC50 (A431) [nM] | IC50 (HeLa) [nM] | IC50 (CDK1/CycB) [nM] | IC50 (HeLa-MaTu-ADR; Homo sapiens, 96 h) [nM] | IC50 (Caco-2; Homo sapiens, Caco-2, 96 h) [nM] | IC50 (DU145; Homo sapiens, DU-145, 96 h) [nM] | SMILES | IC50 (NCI-ADR-Res) [nM] | IC50 (Caki2) [nM] |
| --- | --- | --- | --- | --- | --- | --- | --- | --- | --- | --- | --- | --- | --- | --- | --- | --- | --- | --- | --- | --- |
| 7 | 24 | 9 |  |  |  |  |  |  |  |  |  |  |  |  |  |  |  | C[C@@H](O)[C@@H](C)Oc1nc(Nc2ccc(S(C)(=N)=O)cc2)ncc1C(F)(F)F (mixture of isomers) [Example 2-SI-2, (RS)—S-(4-{[4-{[(1R,2R)-2-Hydroxy-1-methylpropyl]oxy}-5-(trifluoromethyl)pyrimidin-2-yl]-amino}phenyl)-S-methylsulfoximide] |  |  |
|  |  |  | 19 | 27 | 22 | 16 | 16 | 14 | 19 | 21 | 28 | 17 | 13 | 4 |  |  |  | C[C@@H](O)[C@@H](C)Oc1nc(Nc2ccc(S(C)(=N)=O)cc2)ncc1C(F)(F)F (single isomer, unassigned) [Example 2-SI-2] | 29 | 24 |
|  |  |  | 14 | < 10 | 30 | 11 | 20 | 16 | 22 | 33 | 12 | 20 | 33 | 6 | 16 | 35 | 31 | C[C@@H](O)[C@@H](C)Nc1nc(Nc2ccc(S(=N)(=O)C3CC3)cc2)ncc1C(F)(F)F (mixture of isomers) [Example 4-SI-1, (RS)—S-Cyclopropyl-S-(4-{[4-{[(1R,2R)-2-hydroxy-1-methylpropyl]amino}-5-(trifluoromethyl)-pyrimidin-2-yl]amino}phenyl)sulfoximide] | 37 | < 10 |

— US20130210846A1, “USE OF NOVEL PAN-CDK INHIBITORS FOR TREATING TUMORS” (BAYER INTELLECTUAL PROPERTY GMBH, priority 2010, published 2013)
